From US20150141435A1, “2-PYRIDONE ANTIMICROBIAL COMPOSITIONS” (Emergent BioSolutions, priority 2010, published 2015)
≈ marks a conversion by molar mass, not a printed value. Structures can show the parent of a compound that is named as a salt. Where two headings read alike, the source gives them in different places.

Key:
Assay type in all cases: cell-based
[1] = system: Burkholderia pseudomallei ATCC 23343; assay: microbe, parasite or virus in culture; settings: ATCC23343
[2] = system: E. faecium ATCC 19434; assay: MIC, CLSI broth microdilution (Table 1); settings: Enterococcus faecium
[3] = system: A. baumannii ATCC 19606; assay: MIC, CLSI broth microdilution (Table 2); settings: Acinetobacter baumannii
[4] = system: Francisella tularensis Schu S4; assay: microbe, parasite or virus in culture; settings: SCHUS4
[5] = system: Yersinia pestis C092; assay: microbe, parasite or virus in culture
[6] = system: Brucella abortus ATCC 23448; assay: microbe, parasite or virus in culture; settings: ATCC23448
[7] = system: Burkholderia mallei ATCC 23344; assay: microbe, parasite or virus in culture; settings: ATCC23344
[8] = system: S. aureus ATCC 43300 (MRSA, FQ-S); assay: MIC, CLSI broth microdilution (Table 1); settings: Staphylococcus aureus, read-out: MIC S. aureus ATCC 43300 (MRSA, FQ-S)
[9] = system: K. pneumoniae ATCC 33495; assay: MIC, CLSI broth microdilution (Table 2); settings: Klebsiella pneumoniae
[10] = system: Bacillus anthracis Ames strain; assay: microbe, parasite or virus in culture
[11] = system: E. faecalis ATCC 29212; assay: MIC, CLSI broth microdilution (Table 1); settings: Enterococcus faecalis
[12] = system: H. influenzae ATCC 49247; assay: MIC, CLSI broth microdilution (Table 2); settings: Haemophilus influenzae
[13] = system: S. aureus BAA-1720 (MRSA, FQ-R); assay: MIC, CLSI broth microdilution (Table 1); settings: Staphylococcus aureus, read-out: MIC S. aureus BAA-1720 (MRSA, FQ-R)
[14] = system: S. maltophilia ATCC 17677; assay: MIC, CLSI broth microdilution (Table 2); settings: Stenotrophomonas maltophilia
[15] = system: S. aureus ATCC 25923; assay: MIC, CLSI broth microdilution (Table 1); settings: Staphylococcus aureus
[16] = system: E. coli ATCC 25922; assay: MIC, CLSI broth microdilution (Table 2); settings: Escherichia coli
[17] = system: S. pneumonia ATCC 49619; assay: MIC, CLSI broth microdilution (Table 1); settings: Streptococcus pneumoniae
[18] = system: P. aeruginosa ATCC 27853; assay: MIC, CLSI broth microdilution (Table 2); settings: Pseudomonas aeruginosa
[19] = ATCC19434, read-out: MIC E. faecium ATCC 19434
[20] = ATCC19606, read-out: MIC A. baumannii B. ATCC 19606
[21] = ATCC33495, read-out: MIC K. pneumoniae ATCC 33495
[22] = ATCC29212, read-out: MIC E. faecalis ATCC 29212
[23] = ATCC49247, read-out: MIC H. influenzae ATCC 49247
[24] = ATCC17677, read-out: MIC S. maltophilia ATCC 17677
[25] = ATCC25923, read-out: MIC S. aureus ATCC 25923
[26] = ATCC25922, read-out: MIC E. coli ATCC 25922
[27] = ATCC49619, read-out: MIC S. pneumonia ATCC 49619
[28] = ATCC19434, Gram positive, MHB, 37° C., 16-20 hours, read-out: MIC E. faecium ATCC 19434
[29] = ATCC19606, Gram negative, MHB, 37° C., 16-20 hours, read-out: MIC A. baumannii B. ATCC 19606
[30] = Gram positive, MHB, 37° C., 16-20 hours
[31] = ATCC33495, Gram negative, MHB, 37° C., 16-20 hours, read-out: MIC K. pneumoniae ATCC 33495
[32] = ATCC29212, Gram positive, MHB, 37° C., 16-20 hours, read-out: MIC E. faecalis ATCC 29212
[33] = ATCC49247, Gram negative, MHB, 37° C., 16-20 hours, read-out: MIC H. influenzae ATCC 49247
[34] = ATCC27853, Gram negative, MHB, 37° C., 16-20 hours, read-out: MIC P. aeruginosa ATCC 27853
[35] = ATCC17677, Gram negative, MHB, 37° C., 16-20 hours, read-out: MIC S. maltophilia ATCC 17677
[36] = ATCC25923, Gram positive, MHB, 37° C., 16-20 hours, read-out: MIC S. aureus ATCC 25923
[37] = ATCC49619, Gram positive, MHB, 37° C., 16-20 hours, read-out: MIC S. pneumonia ATCC 49619
[38] = ATCC25922, Gram negative, MHB, 37° C., 16-20 hours, read-out: MIC E. coli ATCC 25922

| Structure (SMILES) | MIC [1] [µg/mL] | MIC [3, 20] [µg/mL] | MIC [4] [µg/mL] | MIC [5] [µg/mL] | MIC [6] [µg/mL] | MIC [7] [µg/mL] | MIC [9, 21] [µg/mL] | MIC [10] [µg/mL] | MIC [2, 28] [µg/mL] | MIC [3, 29] [µg/mL] | MIC [8, 30] [µg/mL] | MIC [9, 31] [µg/mL] | MIC [11, 32] [µg/mL] | MIC [12, 33] [µg/mL] | MIC [18, 34] [µg/mL] | MIC [13, 30] [µg/mL] | MIC [14, 35] [µg/mL] | MIC [15, 36] [µg/mL] | MIC [17, 37] [µg/mL] | MIC [16, 38] [µg/mL] | also measured |
| --- | --- | --- | --- | --- | --- | --- | --- | --- | --- | --- | --- | --- | --- | --- | --- | --- | --- | --- | --- | --- | --- |
| Cc1c(-c2ccc(N)c(F)c2)c(F)cn2c(=O)c(C(=O)O)cc(C3CC3)c12 [Example 1 K salt, 8-(4-amino-3-fluoro-phenyl)-1-cyclopropyl-7-fluoro-9-methyl-4-oxo-4H-quinolizine-3-carboxylic acid] | 0.5 | 0.064 | 0.016 | 0.031 | 0.031 | 0.25 to 0.5 | 0.125 | 0.004 | – | – | – | – | – | – | – | – | – | – | – | – | MIC [2, 19]: 0.25 µg/mL; MIC [8]: ≤ 0.004 µg/mL; MIC [11, 22]: 0.008 µg/mL; MIC [12, 23]: ≤ 0.004 µg/mL; MIC [13]: 0.125 µg/mL; MIC [14, 24]: 0.125 µg/mL; MIC [15, 25]: ≤ 0.004 µg/mL; MIC [16, 26]: 0.032 to 0.064 µg/mL; MIC [17, 27]: 0.016 µg/mL |
| Cc1c(-c2ccc(N)c(F)c2)ccn2c(=O)c(C(=O)O)cc(C3CC3)c12 [Example 2 K salt, 8-(4-amino-3-fluoro-phenyl)-1-cyclopropyl-9-methyl-4-oxo-4H-quinolizine-3-carboxylic acid] | 0.063 | 0.125 | 0.016 | 0.031 | 0.016 to 0.031 | 0.063 | 0.125 | 0.004 | – | – | – | – | – | – | – | – | – | – | – | – | MIC [2, 19]: 0.25 µg/mL; MIC [8]: 0.004 µg/mL; MIC [11, 22]: 0.016 µg/mL; MIC [12, 23]: ≤ 0.004 µg/mL; MIC ([18]; ATCC27853, read-out: MIC P. aeruginosa ATCC 27853): 1 µg/mL; MIC [13]: 0.125 µg/mL; MIC [14, 24]: 0.125 µg/mL; MIC [15, 25]: ≤ 0.004 µg/mL; MIC [16, 26]: 0.032 µg/mL; MIC [17, 27]: 0.032 µg/mL |
| Cc1c(-c2cccc(N)c2)ccn2c(=O)c(C(=O)O)cc(C3CC3)c12 [Example 3 K salt, 8-(3-amino-phenyl)-1-cyclopropyl-9-methyl-4-oxo-4H-quinolizine-3-carboxylic acid] | 0.25 | – | 0.031 | 0.031 to 0.063 | 0.125 | 0.5 to 1 | – | 0.008 | 1 | 0.25 | 0.016 | 0.25 | 0.064 | 0.016 | 2 | 0.5 | 0.25 | 0.016 | 0.25 | – | MIC [16, 26]: 0.064 to 0.125 µg/mL |
| Cc1c(-c2ccc(F)c(N)c2)ccn2c(=O)c(C(=O)O)cc(C3CC3)c12 [Example 8 K salt, 8-(3-amino-4-fluoro-phenyl)-1-cyclopropyl-9-methyl-4-oxo-4H-quinolizine-3-carboxylic acid] | 0.125 | 0.064 to 0.125 | 0.031 | 0.031 | 0.063 | 0.25 | 0.125 | 0.008 | 0.5 | – | 0.008 | – | 0.032 | 0.064 | 2 | 0.25 | – | 0.008 | – | 0.032 to 0.064 | MIC [14, 24]: 0.125 µg/mL; MIC [17, 27]: 0.125 µg/mL |
| Cc1c(-c2ccncc2)ccn2c(=O)c(C(=O)O)cc(C3CC3)c12 [Example 16 K salt, 1-cyclopropyl-9-methyl-4-oxo-8-(pyridin-4-yl)-4H-quinolizine-3-carboxylic acid] | 0.125 | 0.125 | 0.016 to 0.031 | 0.031 | 0.063 | 0.125 | 0.125 | 0.016 | – | – | – | – | – | – | – | – | – | – | – | – | MIC [8]: 0.016 µg/mL; MIC [11, 22]: 0.064 µg/mL; MIC [12, 23]: ≤ 0.004 µg/mL; MIC [13]: 0.5 to 1 µg/mL; MIC [14, 24]: 0.125 µg/mL; MIC [15, 25]: 0.016 µg/mL; MIC [16, 26]: 0.032 µg/mL; MIC [17, 27]: 0.125 µg/mL |
| Cc1c(-c2ccc(C#N)c(F)c2)ccn2c(=O)c(C(=O)O)cc(C3CC3)c12 [Example 40 K salt, 8-(4-cyano-3-fluoro-phenyl)-1-cyclopropyl-9-methyl-4-oxo-4H-quinolizine-3-carboxylic acid] | – | – | – | – | – | – | – | – | 2 | 0.25 | 0.016 | 0.5 to 1 | 0.064 | 0.016 | > 8 | 0.5 to 1 | 0.25 | 0.016 | 0.125 | 0.125 to 0.25 | – |
| Cc1c(-c2ccc(C(=O)O)cc2)c(F)cn2c(=O)c(C(=O)O)cc(C3CC3)c12 [Example 41 K salt, 8-(4-carboxy-phenyl)-1-cyclopropyl-7-fluoro-9-methyl-4-oxo-4H-quinolizine-3-carboxylic acid] | – | – | – | – | – | – | – | – | > 8 | > 8 | 0.25 | > 8 | 0.25 | 0.032 | > 8 | > 8 | > 8 | 2 | 0.5 to 1 | > 8 | – |
| Cc1c(-c2cc[nH]c2)ccn2c(=O)c(C(=O)O)cc(C3CC3)c12 [Example 43 K salt, 1-cyclopropyl-9-methyl-4-oxo-8-(1H-pyrrol-3-yl)-4H-quinolizine-3-carboxylic acid] | – | – | – | – | – | – | – | – | 4 | 0.25 | 0.032 | 0.125 | 0.125 | 0.008 | 4 | 2 | 0.25 | 0.016 to 0.032 | 0.5 | 0.064 to 0.125 | – |
| Cc1c(-c2ccc(F)cc2)ccn2c(=O)c(C(=O)O)cc(C3CC3)c12 [Example 44 K salt, 1-cyclopropyl-8-(4-fluoro-phenyl)-9-methyl-4-oxo-4H-quinolizine-3-carboxylic acid] | – | – | – | – | – | – | – | – | 0.5 | 0.125 to 0.25 | 0.016 | 0.25 | 0.064 | 0.008 | 2 | 0.5 | 0.25 | 0.016 | 0.25 | 0.125 | – |
| COc1ccc(-c2ccn3c(=O)c(C(=O)O)cc(C4CC4)c3c2C)cc1 [Example 47 K salt, 1-cyclopropyl-8-(4-methoxy-phenyl)-9-methyl-4-oxo-4H-quinolizine-3-carboxylic acid] | – | – | – | – | – | – | – | – | 1 | 0.5 | 0.016 | 1 to 2 | 0.032 to 0.064 | 0.032 | 4 | 0.5 to 1 | 0.5 | 0.016 | 0.25 | 0.25 | – |
| COc1c(N2C[C@@H]3CCCN[C@@H]3C2)c(F)cc2c(=O)c(C(=O)O)cn(C3CC3)c12 [Moxyfloxacin, reference compound] | – | – | – | – | – | – | – | – | 4 (≈ 9.96 µM) | 0.5 (≈ 1.25 µM) | 0.064 (≈ 0.159 µM) | 0.125 (≈ 0.311 µM) | 0.25 (≈ 0.623 µM) | 0.032 (≈ 0.0797 µM) | 2 (≈ 4.98 µM) | 4 (≈ 9.96 µM) | 0.125 (≈ 0.311 µM) | 0.064 (≈ 0.159 µM) | 0.125 (≈ 0.311 µM) | 0.032 (≈ 0.0797 µM) | – |
